From US5488060A, “Substituted thiadiazoles, compositions containing them and their use as antimicrobial and marine antifouling agents” (The Dow Chemical Company, priority 1994, dated 1996) come the findings set out here.

In brackets after ≈: the same amount, converted by molar mass. Like-named read-outs stand apart in the source and are kept apart here.

Common to all, as to assay type: cell-based
For one assay, the system named is Bacillus subtilis (Bs). In words: Minimum inhibitory concentration (MIC) in nutrient agar, Bacillus subtilis. An outline of the steps: (§1)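 Test compound, as a 1% acetone–water solution, was mixed into molten nutrient agar (pH 6.8 or pH 8.2) at 48° C to final levels of 500 down to 1.0 ppm. Plates were dried 24 h, spot-inoculated with 10^8 CFU/mL suspensions of 24-h cultures, and incubated 48 h at 30° C. MIC was the lowest level preventing growth.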

Assay [1] relates to Enterobacter aerogenes (Ea). In words: Minimum inhibitory concentration (MIC) in nutrient agar, Enterobacter aerogenes. The conditions noted are these: Klebsiella aerogenes. An outline of the steps: as §1
For the next assay, the system named is Escherichia coli (Ec). The experiment in a line: Minimum inhibitory concentration (MIC) in nutrient agar, Escherichia coli. The method in brief:
as §1

The test system of the next assay is Proteus vulgaris (Pv). The experiment in a line: Minimum inhibitory concentration (MIC) in nutrient agar, Proteus vulgaris. The method in brief:
as §1

The subject of assay [2] is Pseudomonas aeruginosa (PRD-10). In words: Minimum inhibitory concentration (MIC) in nutrient agar, Pseudomonas aeruginosa PRD-10. An outline of the steps: as §1
The subject of assay [3] is Pseudomonas aeruginosa (Pa). In words: Minimum inhibitory concentration (MIC) in nutrient agar, Pseudomonas aeruginosa. Conditions: 30° C., 48 hours, read-out: Minimum Inhibitory Concentration, Pa. The method in brief:
as §1

For assay [4], the system named is Staphylococcus aureus (Sa). In words: Minimum inhibitory concentration (MIC) in nutrient agar, Staphylococcus aureus. The method in brief: as §1
In the next assay the test system is Candida albicans (Ca). In words: Minimum inhibitory concentration (MIC) in malt yeast agar, Candida albicans. An outline of the steps: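 Growth is scored at 30 °C after 72 h for fungi and 48 h for yeast on malt yeast agar (pH 5.5) containing compound at final levels from 500 down to zero ppm. Organisms are grown 7 days at 30 °C, suspended in saline with octylphenoxy polyethoxy ethanol, and diluted 1:9 before replicator inoculation.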

The subject of the next assay is Trichoderma viride (Tv). The experiment in a line: Minimum inhibitory concentration (MIC) in malt yeast agar, Trichoderma viride. An outline of the steps: (§2)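 Agar dilution: test compound from a 1% acetone/water solution was mixed into malt yeast agar (pH 5.5) at 48 °C to final […], 25, 10, 5, 2.5, 1.0 and zero ppm. Plates dried 24 h, were replicator-inoculated with 1:9 saline-diluted suspensions of 7-day 30 °C cultures, and were read after 72 h (fungi) or 48 h (yeast) at 30 °C.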

Assay [5] has as its system Aureobasidium pullulan (Ap). In words: Minimum inhibitory concentration (MIC) in malt yeast agar, Aureobasidium pullulan. An outline of the steps: as §2
A further assay deals with Fusarium oxysporum (Fo). In words: Minimum inhibitory concentration (MIC) in malt yeast agar, Fusarium oxysporum. The method in brief: as §2
[6] abbreviates: 48 h, pH 8.2, read-out: Minimum Inhibitory Concentration, Bs.
The mark [7] stands for this setting: pH 6.8, nutrient agar, 30° C., 48 hours, read-out: Minimum Inhibitory Concentration, Bs.
The mark [8] stands for this setting: 48 h, pH 8.2, read-out: Minimum Inhibitory Concentration, Ea.
The mark [9] stands for this setting: pH 6.8, nutrient agar, 30° C., 48 hours, read-out: Minimum Inhibitory Concentration, Pv.
Where [10] appears, read: 48 h, pH 8.2, read-out: Minimum Inhibitory Concentration, PRD.
Setting [11] is: pH 6.8, nutrient agar, 30° C., 48 hours, read-out: Minimum Inhibitory Concentration, Sa.

Consider `N#CSc1nsnc1-c1ccccc1` [Example I, 4-Phenyl-3-thiocyanato-1,2,5-thiadiazole], for which the MIC in the assay on Bacillus subtilis (Bs) (setting [6]) is 250 µg/mL (≈ 1140 µM); in the assay with Bacillus subtilis (Bs) (setting [7]), less than 10 µg/mL; in [1] (setting [8]), 500 µg/mL (≈ 2280 µM); in assay [1] (pH 6.8, nutrient agar, 30° C., 48 hours, read-out: Minimum Inhibitory Concentration, Ea) it was 100 µg/mL (≈ 456 µM); with Escherichia coli (Ec) (48 h, pH 6.8, read-out: Minimum Inhibitory Concentration, Ec), 50 µg/mL (≈ 228 µM); with Escherichia coli (Ec) (48 h, pH 8.2, read-out: Minimum Inhibitory Concentration, Ec) it was more than 500 µg/mL. In addition, the MIC is 500 µg/mL (≈ 2280 µM) in the assay with Proteus vulgaris (Pv) (48 h, pH 8.2, read-out: Minimum Inhibitory Concentration, Pv); 50 µg/mL (≈ 228 µM) in the assay on Proteus vulgaris (Pv) (setting [9]); more than 500 µg/mL in assay [2] (48 h, pH 6.8, read-out: Minimum Inhibitory Concentration, PRD); more than 500 µg/mL in [2] (setting [10]); more than 500 µg/mL in assay [3] (pH 6.8, nutrient agar); more than 500 µg/mL in [3] (pH 8.2, nutrient agar). For the same compound, the MIC was 500 µg/mL (≈ 2280 µM) in assay [4] (48 h, pH 8.2, read-out: Minimum Inhibitory Concentration, Sa); 25 µg/mL (≈ 114 µM) in assay [4] (setting [11]); 2.5 µg/mL (≈ 11.4 µM) with Candida albicans (Ca) (48 h, pH 5.5, read-out: Minimum Inhibitory Concentration, Ca); 2.5 µg/mL (≈ 11.4 µM) in the assay with Trichoderma viride (Tv) (pH 5.5, malt yeast agar, 30° C., 72 hours for fungi, read-out: Minimum Inhibitory Concentration, Tv); less than 1 µg/mL in assay [5] (pH 5.5, malt yeast agar, 30° C., read-out: Minimum Inhibitory Concentration, Ap); 2.5 µg/mL (≈ 11.4 µM) with Fusarium oxysporum (Fo) (pH 5.5, malt yeast agar, 30° C., 72 hours for fungi, read-out: Minimum Inhibitory Concentration, Fo).

For `N#CSCSc1nsnc1-c1ccccc1` [Example XVI, 4-Phenyl-3-thiocyanato-methylthio-1,2,5-thiadiazole], the MIC was 250 µg/mL (≈ 942 µM) with Bacillus subtilis (Bs) (setting [6]); less than 10 µg/mL with Bacillus subtilis (Bs) (setting [7]); 50 µg/mL (≈ 188 µM) in [1] (48 h, pH 6.8, read-out: Minimum Inhibitory Concentration, Ea); 500 µg/mL (≈ 1880 µM) in assay [1] (setting [8]); 25 µg/mL (≈ 94.2 µM) with Escherichia coli (Ec) (pH 6.8, nutrient agar, 30° C., 48 hours, read-out: Minimum Inhibitory Concentration, Ec); 250 µg/mL (≈ 942 µM) in the assay on Escherichia coli (Ec) (pH 8.2, nutrient agar, 30° C., 48 hours, read-out: Minimum Inhibitory Concentration, Ec). The MIC came to 50 µg/mL (≈ 188 µM) in the assay with Proteus vulgaris (Pv) (setting [9]); 250 µg/mL (≈ 942 µM) with Proteus vulgaris (Pv) (pH 8.2, nutrient agar, 30° C., 48 hours, read-out: Minimum Inhibitory Concentration, Pv); 50 µg/mL (≈ 188 µM) in [2] (setting [10]); 25 µg/mL (≈ 94.2 µM) in assay [2] (pH 6.8, nutrient agar, 30° C., 48 hours, read-out: Minimum Inhibitory Concentration, PRD); 250 µg/mL (≈ 942 µM) in assay [3] (pH 8.2, nutrient agar); 25 µg/mL (≈ 94.2 µM) in assay [4] (setting [11]). Also, the MIC in [4] (pH 8.2, nutrient agar, 30° C., 48 hours, read-out: Minimum Inhibitory Concentration, Sa) was 50 µg/mL (≈ 188 µM); in the assay with Candida albicans (Ca) (pH 5.5, malt yeast agar, 30° C., 48 hours for yeast, read-out: Minimum Inhibitory Concentration, Ca) it was 5 µg/mL (≈ 18.8 µM); in the assay on Trichoderma viride (Tv) (72 h, pH 5.5, read-out: Minimum Inhibitory Concentration, Tv), 10 µg/mL (≈ 37.7 µM); in assay [5] (pH 5.5, read-out: Minimum Inhibitory Concentration, Ap) it was 2.5 µg/mL (≈ 9.42 µM); with Fusarium oxysporum (Fo) (72 h, pH 5.5, read-out: Minimum Inhibitory Concentration, Fo), 5 µg/mL (≈ 18.8 µM).
